Laboratory results reported in US9938269B2, “Inhibitor compounds of phosphodiesterase type 10A” (ABBVIE INC., priority 2011, dated 2018).
pIC50: −log10 of the molar value. Structures can show the parent of a compound that is named as a salt.

What was measured:
[1] = target: T1, PDE10A (human) (Homo sapiens, UniProt Q9Y233); assay: Measurement of PDE activity (HTRF cAMP kit), human PDE10A; format: biochemical; details: PDE enzymatic reaction, substrate 20 nM for PDE10, 60 minutes at 29 C
T1 construct: purchased BPS Bioscience
T1 sequence (Q9Y233 whole entry): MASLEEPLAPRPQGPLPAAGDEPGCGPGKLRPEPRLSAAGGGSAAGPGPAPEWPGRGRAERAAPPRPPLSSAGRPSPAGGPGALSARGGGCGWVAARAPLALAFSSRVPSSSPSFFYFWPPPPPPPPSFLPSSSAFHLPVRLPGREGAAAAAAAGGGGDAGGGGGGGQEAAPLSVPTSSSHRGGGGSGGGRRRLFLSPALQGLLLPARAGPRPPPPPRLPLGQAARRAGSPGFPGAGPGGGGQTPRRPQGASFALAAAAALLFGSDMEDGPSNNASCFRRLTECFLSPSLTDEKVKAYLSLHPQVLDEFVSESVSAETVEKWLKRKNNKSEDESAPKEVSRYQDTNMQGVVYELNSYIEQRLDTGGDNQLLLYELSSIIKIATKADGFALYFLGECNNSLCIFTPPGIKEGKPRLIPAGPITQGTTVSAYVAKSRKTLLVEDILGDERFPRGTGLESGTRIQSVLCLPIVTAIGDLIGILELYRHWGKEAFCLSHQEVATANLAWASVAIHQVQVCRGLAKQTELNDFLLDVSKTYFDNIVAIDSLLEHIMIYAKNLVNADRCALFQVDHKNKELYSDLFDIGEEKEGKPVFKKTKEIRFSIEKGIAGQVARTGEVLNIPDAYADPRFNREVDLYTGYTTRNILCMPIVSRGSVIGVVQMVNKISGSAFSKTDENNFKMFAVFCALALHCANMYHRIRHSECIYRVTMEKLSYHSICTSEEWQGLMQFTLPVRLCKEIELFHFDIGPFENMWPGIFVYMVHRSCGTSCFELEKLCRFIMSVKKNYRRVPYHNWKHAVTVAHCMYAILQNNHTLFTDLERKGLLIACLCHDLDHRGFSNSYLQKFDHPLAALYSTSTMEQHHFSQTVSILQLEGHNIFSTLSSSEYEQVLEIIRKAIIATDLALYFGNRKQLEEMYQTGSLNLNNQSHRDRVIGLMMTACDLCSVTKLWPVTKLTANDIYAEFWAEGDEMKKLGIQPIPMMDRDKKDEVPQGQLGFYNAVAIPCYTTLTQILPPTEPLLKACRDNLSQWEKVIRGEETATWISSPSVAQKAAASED
Procedure, shortened: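 HTRF detection of cAMP left after hydrolysis, expressed as percent of uninhibited control to derive IC50. Reaction: serially diluted inhibitor mixed with recombinant enzyme, started with 20 nM cAMP, 60 min at 29 °C in Tris-HCl pH 7.5 buffer containing MgCl2 and BSA.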

[2] = Determination of the microsomal half-life, rat liver microsomes; details: for microsomal CLint at 0.5 μM: rat, liver microsomes, pH 7.4
Description: (§1) The test substances were incubated in a concentration of 0.5 μM as follows:
(§2) 0.5 μM test substance are preincubated together with liver microsomes from different species (from rat, human or other species) (0.25 mg of microsomal protein/10 in 0.05 M potassium phosphate buffer of pH 7.4 in microtiter plates at 37° C. for 5 min. The reaction is started by adding NADPH (1 mg/mL). After 0, 5, 10, 15, 20 and 30 min., 50 μl aliquots are removed, and the reaction is immediately stopped and cooled with the same volume of acetonitrile. The samples are frozen until analyzed. The remaining concentration of undegraded test substance is determined by MSMS. The half-life (T½) is determined from the gradient of the signal of test substance/unit time plot, it being possible to calculate the half-life of the test substance, assuming first order kinetics, from the decrease in the concentration of the compound with time. The microsomal clearance (mCl) is calculated from mCl=ln 2/T½/(content of microsomal protein in mg/ml)×1000 [ml/min/mg]

[3] = Determination of the microsomal half-life, human liver microsomes; details: for microsomal CLint at 0.5 μM: human, liver microsomes, pH 7.4
Description: as §1, §2

SMILES	pIC50 [1]	microsomal CLint at 0.5 μM [2]	microsomal CLint at 0.5 μM [3]	Rat mCl (mikrosomal clearance) ([2]; rat liver microsomes, 0.5 μM test substance, 0.25 mg microsomal protein, pH 7.4, 37° C., NADPH)	Human mCl (mikrosomal clearance) ([3]; human liver microsomes, 0.5 μM test substance, 0.25 mg microsomal protein, pH 7.4, 37° C., NADPH)
O=C1c2c(cccc2-c2ccncc2)CN1CCc1cn2ccccc2n1 [Example 20, 2-(2-Imidazo[1,2-a]pyridin-2-yl-ethyl)-7-pyridin-4-yl-2,3-dihydro-isoindol-1-one]	> 7.00	< 100 µL/min/mg	< 100 µL/min/mg	–	–
COc1ccc(-c2cccc3c2C(=O)N(CCc2ccc4ccccc4n2)C3)cn1 [Example 54, 7-(6-Methoxy-pyridin-3-yl)-2-(2-quinolin-2-yl-ethyl)-2,3-dihydro-isoindol-1-one]	> 7.00	100 to 220 µL/min/mg	100 to 220 µL/min/mg	–	–
O=C1c2c(cccc2-c2cncnc2)CN1CCc1ccc2ccccc2n1 [Example 58, 7-Pyrimidin-5-yl-2-(2-quinolin-2-yl-ethyl)-2,3-dihydro-isoindol-1-one]	> 7.00	< 100 µL/min/mg	> 220 µL/min/mg	–	–
Cc1ncccc1-c1cccc2c1C(=O)N(CCc1ccc3ccccc3n1)C2 [Example 86, 7-(2-Methyl-pyridin-3-yl)-2-(2-quinolin-2-yl-ethyl)-2,3-dihydro-isoindol-1-one]	> 7.00	> 220 µL/min/mg	100 to 220 µL/min/mg	–	–
Cc1ccc(-c2cccc3c2C(=O)N(CCc2ccc4ccccc4n2)C3)cn1 [Example 91, 7-(6-Methyl-pyridin-3-yl)-2-(2-quinolin-2-yl-ethyl)-2,3-dihydro-isoindol-1-one]	> 7.00	< 100 µL/min/mg	100 to 220 µL/min/mg	–	–
O=C1Cc2ccc(-c3cccc4c3C(=O)N(CCc3ccc5ccccc5n3)C4)cc2N1 [Example 96, 6-[3-Oxo-2-(2-quinolin-2-yl-ethyl)-2,3-dihydro-1H-isoindol-4-yl]-1,3-dihydro-indol-2-one]	> 7.00	100 to 220 µL/min/mg	100 to 220 µL/min/mg	–	–
O=C1c2c(cccc2-c2ccc(C(F)(F)F)nc2)CN1CCc1ccc2ccccc2n1 [Example 98, 2-(2-Quinolin-2-yl-ethyl)-7-(6-trifluoromethyl-pyridin-3-yl)-2,3-dihydro-isoindol-1-one]	6.30 to 6.70	< 100 µL/min/mg	100 to 220 µL/min/mg	–	–
O=C1c2c(cccc2N2CCOCC2)CN1CCc1ccc2ccccc2n1 [Example 99, 7-Morpholin-4-yl-2-(2-quinolin-2-yl-ethyl)-2,3-dihydro-isoindol-1-one]	> 7.00	< 100 µL/min/mg	100 to 220 µL/min/mg	–	–
O=C1c2c(cccc2N2C[C@@H]3C[C@H]2CN3)CN1CCc1ccc2ccccc2n1 [Example 101, 7-(1S,4S)-2,5-Diaza-bicyclo[2.2.1]hept-2-yl-2-(2-quinolin-2-yl-ethyl)-2,3-dihydro-isoindol-1-one]	6.30 to 6.70	> 220 µL/min/mg	< 100 µL/min/mg	–	–
O=C1c2c(cccc2N2CCNCC2)CN1CCc1ccc2ccccc2n1 [Example 102, 7-piperazin-1-yl-2-(2-quinolin-2-yl-ethyl)-2,3-dihydro-isoindol-1-one]	6.30 to 6.70	100 to 220 µL/min/mg	< 100 µL/min/mg	–	–
O=C1c2c(cccc2N2CCS(=O)(=O)CC2)CN1CCc1ccc2ccccc2n1 [Example 104, 7-(1,1-Dioxo-1-thiomorpholin-4-yl)-2-(2-quinolin-2-yl-ethyl)-2,3-dihydro-isoindol-1-one]	> 7.00	< 100 µL/min/mg	< 100 µL/min/mg	–	–
O=C1c2c(cccc2N2CCN(c3ccncc3)CC2)CN1CCc1ccc2ccccc2n1 [Example 106, 7-(4-Pyridin-4-yl-piperazin-1-yl)-2-(2-quinolin-2-yl-ethyl)-2,3-dihydro-isoindol-1-one]	6.30 to 6.70	< 100 µL/min/mg	100 to 220 µL/min/mg	–	–
CN1CCN(c2cccc3c2C(=O)N(CCc2ccc4ccccc4n2)C3)CC1 [Example 107, 7-(4-Methyl-piperazin-1-yl)-2-(2-quinolin-2-yl-ethyl)-2,3-dihydro-isoindol-1-one]	6.30 to 6.70	< 100 µL/min/mg	< 100 µL/min/mg	–	–
O=C1c2c(cccc2N2CCCOCC2)CN1CCc1ccc2ccccc2n1 [Example 110, 7-[1,4]Oxazepan-4-yl-2-(2-quinolin-2-yl-ethyl)-2,3-dihydro-isoindol-1-one hydrochloride]	> 7.00	100 to 220 µL/min/mg	> 220 µL/min/mg	–	–
O=C1c2c(cccc2N2CCOCC2)CN1CCc1ccc2cc(F)ccc2n1 [Example 115, 2-[2-(6-Fluoro-quinolin-2-yl)-ethyl]-7-morpholin-4-yl-2,3-dihydro-isoindol-1-one trifluoroacetate]	> 7.00	< 100 µL/min/mg	100 to 220 µL/min/mg	–	–
COc1ccc2nc(CCN3Cc4cccc(N5CCOCC5)c4C3=O)ccc2c1 [Example 116, 2-[2-(6-Methoxy-quinolin-2-yl)-ethyl]-7-morpholin-4-yl-2,3-dihydro-isoindol-1-one hydrochloride]	> 7.00	< 100 µL/min/mg	100 to 220 µL/min/mg	–	–
O=C1c2c(N3CCOCC3)ccnc2CN1CCc1ccc2ccccc2n1 [Example 119, 4-Morpholin-4-yl-6-(2-quinolin-2-yl-ethyl)-6,7-dihydro-pyrrolo[3,4-b]pyridin-5-one]	> 7.00	< 100 µL/min/mg	< 100 µL/min/mg	–	–
O=C1c2c(cccc2N2CCOCC2)CN1CCc1cccc(-c2ncccn2)c1 [Example 120, 7-Morpholino-2-(3-(pyrimidin-2-yl)phenethyl)isoindolin-1-one]	6.30 to 6.70	100 to 220 µL/min/mg	100 to 220 µL/min/mg	–	–
O=C1c2cccc(N3CCOCC3)c2CN1CCc1ccc2ccccc2n1 [Example 130, 4-Morpholin-4-yl-2-(2-quinolin-2-yl-ethyl)-2,3-dihydro-isoindol-1-one; compound with trifluoro-acetic acid]	> 7.00	> 220 µL/min/mg	100 to 220 µL/min/mg	–	–
O=C1c2cccc(N3CCS(=O)(=O)CC3)c2CN1CCc1ccc2ccccc2n1 [Example 131, 4-(1,1-Dioxo-1-thiomorpholin-4-yl)-2-(2-quinolin-2-yl-ethyl)-2,3-dihydro-isoindol-1-one]	6.30 to 6.70	< 100 µL/min/mg	< 100 µL/min/mg	–	–
O=C1c2c(cccc2N2CCC3(COC3)C2)CN1CCc1ccc2ccccc2n1 [Example 134, 7-(2-Oxa-6-aza-spiro[3.4]oct-6-yl)-2-(2-quinolin-2-yl-ethyl)-2,3-dihydro-isoindol-1-one]	> 7.00	100 to 220 µL/min/mg	> 220 µL/min/mg	–	–
O=C1c2c(cccc2N2CC[S+]([O-])CC2)CN1CCc1ccc2ccccc2n1 [Example 135, 7-(1-oxo-thiomorpholin-4-yl)-2-(2-quinolin-2-yl-ethyl)-2,3-dihydro-isoindol-1-one]	> 7.00	< 100 µL/min/mg	< 100 µL/min/mg	–	–
O=C1c2c(N3CCS(=O)(=O)CC3)ccnc2CN1CCc1ccc2ccccc2n1 [Example 137, 4-(1,1-Dioxo-thiomorpholin-4-yl)-6-(2-quinolin-2-yl-ethyl)-6,7-dihydro-pyrrolo[3,4-b]pyridin-5-one]	> 7.00	< 100 µL/min/mg	< 100 µL/min/mg	–	–
CN1CCN(c2ccnc3c2C(=O)N(CCc2ccc4ccccc4n2)C3)CC1 [Example 138, 4-(4-Methyl-piperazin-1-yl)-6-(2-quinolin-2-yl-ethyl)-6,7-dihydro-pyrrolo[3,4-b]pyridin-5-one]	> 7.00	< 100 µL/min/mg	< 100 µL/min/mg	–	–
O=C1c2c(cccc2NC2CNC2)CN1CCc1ccc2ccccc2n1 [Example 145, 7-(Azetidin-3-ylamino)-2-(2-quinolin-2-yl-ethyl)-2,3-dihydro-isoindol-1-one]	6.30 to 6.70	< 100 µL/min/mg	< 100 µL/min/mg	–	–
Cn1c(CCN2Cc3cccc(N4CCOCC4)c3C2=O)nc2ccccc21 [Example 153, 2-[2-(1-Methyl-1H-benzoimidazol-2-yl)-ethyl]-7-morpholin-4-yl-2,3-dihydro-isoindol-1-one]	> 7.00	< 100 µL/min/mg	< 100 µL/min/mg	–	–
O=C1c2c(-c3cn[nH]c3)ccnc2CN1CCc1ccc2ccccc2n1 [Example 156, 4-(1H-Pyrazol-4-yl)-6-(2-quinolin-2-yl-ethyl)-6,7-dihydro-pyrrolo[3,4-b]pyridin-5-one]	> 7.00	100 to 220 µL/min/mg	< 100 µL/min/mg	–	–
O=C(O)C(F)(F)F.O=C(O)C(F)(F)F.O=C1c2c(-c3ccc(F)cc3)ccnc2CN1CCc1ccc2ccccc2n1 [Example 160, 4-(4-Fluoro-phenyl)-6-(2-quinolin-2-yl-ethyl)-6,7-dihydro-pyrrolo[3,4-b]pyridin-5-one (di trifluoroacetate)]	> 7.00	–	–	∘ (∘ not avialable or >220 μl min^−1 mg^−1)	+ (+: 100-220 μl min^−1 mg^−1)
COc1ccc(-c2ccnc3c2C(=O)N(CCc2ccc4ccccc4n2)C3)cc1 [Example 161, 4-(4-Methoxy-phenyl)-6-(2-quinolin-2-yl-ethyl)-6,7-dihydro-pyrrolo[3,4-b]pyridin-5-one]	> 7.00	> 220 µL/min/mg	100 to 220 µL/min/mg	–	–
Cn1nccc1-c1ccnc2c1C(=O)N(CCc1ccc3ccccc3n1)C2 [Example 162, 4-(2-Methyl-2H-pyrazol-3-yl)-6-(2-quinolin-2-yl-ethyl)-6,7-dihydro-pyrrolo[3,4-b]pyridin-5-one hydrochloride]	> 7.00	< 100 µL/min/mg	< 100 µL/min/mg	–	–
